Data on three compounds can be found in patent US20250128203A1, “MODIFIED REDOX-ACTIVE SORBENTS FOR ELECTROCHEMICAL CARBON DIOXIDE SEPARATION” (The Johns Hopkins University, priority 2023, published 2025).

Data set [1] relates to U2OS.EGFP human osteosarcoma cells. Nature of the data set: alamarBlue cytotoxicity assay. It is filed as cell-based. As to conditions: concentrations up to 100 µg mL^−1, 48 h. As to the method:
(§1) NIH3T3/GFP fibroblast cell line was kindly provided by Dr. Yun Chen at Johns Hopkins University and cultured in Dulbecco's Modified Eagle's Medium (DMEM; Gibco) supplemented with 10% fetal bovine serum (FBS; Hyclone) and 1% penicillin/streptomycin (Pen/Strep; Gibco). U2OS.EGFP cells were kindly provided by Dr. J Keith Joung at Massachusetts General Hospital and cultured in DMEM supplemented with 10% FBS, 2 mM GlutaMAX (Gibco), and 1% Pen/Strep. MCF10A epithelial cell line was kindly provided by Dr. Konstantinos Konstantopoulos at Johns Hopkins University and cultured in DMEM/F-12 (1:1) supplemented with 5% New Zealand horse serum (Gibco), 20 ng mL^−1 EGF (PeproTech), […] hydrocortisone (Sigma Aldrich), 100 ng mL^−1 cholera toxin (Sigma Aldrich), […] insulin (Gibco), and 1% Pen/Strep. All cells were cultured in a humidified incubator at 5% CO2 and 37° C.
(§2) Cell cytotoxicity was examined by alamarBlue HS Cell Viability Reagent (Invitrogen) according to manufacturer's protocol. Rampersad, 2012; Kumar et al., 2018. […] Absorbance was measured at 570 nm by a SpectraMax microplate reader, with 600 nm as a reference wavelength. The cell viability was calculated by relative absorbance to control groups. […] Cell morphology was monitored throughout the assay and images were acquired with an EVOS cell imaging system (Thermo Fisher).
A general note: Resazurin is reduced to fluorescent resorufin, in cell work by metabolically active cells.

Data set [2] deals with NIH3T3/GFP mouse fibroblasts. Nature of the data set: alamarBlue cytotoxicity assay. It is filed as cell-based. The settings on record: concentrations up to 100 µg mL^−1, 48 h. As to the method: as §1, §2
Data set [3] concerns MCF10A human breast epithelial cells. Nature of the data set: alamarBlue cytotoxicity assay. It is filed as cell-based. Also on record: unit not given here. As to conditions: 48 h cell culture. The method, then: as §1, §2
Data set [4] in a line: Flow-based EMCC prototype, cyclic CO2 capture/release. The settings on record: more than 40 cycles and approximately 200 hours of operation. The method, then:
In a typical experiment, the sorbent tank (20 mL scintillation vial with septum cap) was continuously bubbled with CO2 feed gas (balanced by N2) with the flow rate controlled by a mass flow controller (Alicat). For testing under simulated flue gas conditions, a gas mixture of 10% CO2+3% O2 balanced by N2 was used. An infrared-based CO2 sensor (SprintIR-W 100%) was connected at the gas exit to monitor the CO2 concentration continuously. The tank headspace was filled with plastic beads (McMaster-Carr) to limit the mixing time in the headspace. The Fc tank was kept air free. A two-channel peristaltic pump (Masterflex) circulated the sorbent and the Fc electrolyte to a commercial flow cell (Scribner) at a flow rate of 10 mL min^−1. The flow cell utilised graphite plates with 5 cm^2 interdigitated flow fields pressed against two pieces of carbon paper electrodes (Sigracet 28 AA) at each side of the graphite electrodes to distribute the liquid flow. A Nafion™ 115 membrane was sandwiched by two pieces of polypropylene and placed between the carbon paper electrodes. The cell was kept sealed by Kalrez fluoropolymer elastomer gaskets (0.02 inches thick). CO2 capture was conducted in a constant current mode while the release was carried out following a constant current/constant voltage protocol (that is, oxidizing the adduct at a constant current until a specific cut-off voltage followed by a constant voltage hold (the cut-off current for the constant voltage hold was 5% of the value used in the constant current oxidation). The cycling protocols of each experiment are provided in the corresponding figure captions.
For experiments using 6MCIId sorbent, we added 10 mM 6MCIId and 4 mM ferrocenium tetrafluoroboronate (FcBF4) into the CE tank to mitigate sorbent crossover and facilitate the reduction of the oxidised ferrocenium in the counter electrolyte, respectively. For less soluble 55DBIId and 66DBIId, the sorbent was dispersed in DMAc to form a slurry catholyte.

The nature of data set [5]: UV-vis absorption, optical band gap. As to conditions: UV-vis absorption (Kubelka-Munk spectra). It is filed as physicochemical. The method, then:
UV-vis absorption spectra were recorded on a Thermo Scientific Genesys 10S UV-vis spectrophotometer.

Data set [6] in a line: CO2 binding constant (KCO2) calculated from the shift of the second reduction peak in CV. The settings on record: for K[CO2] / logK[CO2]: DMF, 298 K; for ΔEpeak(2): difference between the second reduction peak potentials (IId·−/IId2−) in CO2 and N2. The method, then:
(§3) Electrochemical measurements were conducted using a BioLogic VSP potentiostat (BioLogic Science Instruments). For the cyclic voltammetry measurements, glassy carbon (Ø=3 mm) was used as the working electrode, platinum wire was used as the counter electrode, silver wire was used as the pseudo-reference electrode and ferrocene was used as the internal reference. In a standard cyclic voltammetry measurement, the molecule of interest (2.5 mM) was dissolved in anhydrous DMF with 100 mM NBu4PF6 as the supporting salt. Typical cyclic voltammograms were collected at a scan rate of […]. To study the effects of ionic species on the redox behaviour of the sorbent molecules, 100 mM LiClO4, NaClO4, KClO4, NBu4ClO4, sodium triflate (NaOTf), or sodium bis(trifluoromethanesulfonyl)imide (NaTFSI) was used as the supporting electrolyte salt.
The CO2 binding constant (KCO2) was calculated by Eq 1: […]

A short description of data set [7]: Cyclic voltammetry of isoindigos in DMF (half-wave redox potentials under N2 or CO2). It is filed as physicochemical. As to conditions: 2.5 mM in DMF; for E1/2 in N2 (first): first half-wave potential vs. Fc^+/Fc; for E1/2 in N2 (first) / E1/2 in N2 (second): 0.1 M NBu4PF6, N2, 298 K; for E1/2 in N2 (second): second half-wave potential vs. Fc^+/Fc; for E1/2 in CO2 (first or single): vs. Fc^+/Fc, 0.1 M NBu4PF6, CO2, 298 K. As to the method:
as §3

The next data set is described as follows: Solubility in DMF. It is filed as physicochemical.
Another data set deals with mammalian cells. Nature of the data set: Cytotoxicity test and cell morphology, different mammalian cells. It is filed as cell-based. More on the design: dose or concentration left out as unconfirmed. The method, then:
as §1, §2

≈ marks a conversion by molar mass, not a printed value.

As to “Methyl isoindigo-6-carbonylserinate [6AIIdSer]”, the Toxicity result in [1] and in data set [2] was “does not display clear toxicity” in each case. For the same compound, the “LC50 (lethal concentration that causes 50% cell death)” value in data set [3] is recorded as 89.4.
For the compound `COC(=O)C(CO)NC(=O)c1ccc2c(c1)NC(=O)/C2=C1/C(=O)Nc2cc(Br)ccc21` (stereo not shown) [6B6AIIdSer, Methyl 6-bromoisoindigo-6′-carbonylserinate], the Cycling stability entry in [4] is “negligible voltage decay”. For the same compound, the Optical band gap in data set [5] was found to be 2.03 eV. In data set [6], the “K[CO2]” value was 5.41e+08 M⁻¹, the “logK[CO2]” value is reported as 8.73 and the “ΔEpeak(2)” value is 0.475 V. In data set [7], the “E1/2 in N2 (first)” value is given as −1.11, V; the “E1/2 in N2 (second)” value is on record as −1.55 V; the “E1/2 in CO2 (first or single)” value was −1.11 V. The “Solubility in DMF” value in the data set “Solubility in DMF” stood at 568 mM (≈ 276 mg/mL).
Regarding `COC(=O)C(CO)NC(=O)c1ccc2c(c1)NC(=O)/C2=C1/C(=O)Nc2ccccc21` (stereo not shown) [6AIIdSer, Methyl isoindigo-6-carbonylserinate], the Optical band gap in data set [5] is on record as 2.04 eV. Besides, in data set [6], the “K[CO2]” value was 2.57e+08 M⁻¹, the “logK[CO2]” value is reported as 8.41 and the “ΔEpeak(2)” value is listed as 0.46 V. Also, in data set [7], the “E1/2 in N2 (first)” value is listed as −1.18, V; the “E1/2 in N2 (second)” value is −1.60 V; the “E1/2 in CO2 (first or single)” value is listed as −1.08 V. Further, the “Biocompatibility compared with unmodified counterpart” value with mammalian cells (0.78 to 100, 48 h) is listed as “much better biocompatibility”. Besides, in the data set on mammalian cells (50, 48 h culture), the “Cell condition in optical microscopic images, compared with IId” value is given as “cells remained much healthier”. The “Solubility in DMF” value in the data set “Solubility in DMF” is on record as 830 mM (≈ 338 mg/mL).
